Test results: EP2873675A1, “Peptide-based peroxidase inhibitors and methods of using same” (The Medical College of Wisconsin, Inc., priority 2013, dated 2015)
“Also recorded” adds a separate entry of the source. Residues, ends and D or L forms follow the SMILES beside them.

How the values were obtained:
[1] = system: MPO; assay: MPO-mediated nitration of LDL (dot blot); format: biochemical; settings: MPO/H2O2/NaNO2, 37 °C, 4 h
Method: MPO-mediated Nitration of LDL: LDL (0.5 mg/mL) was incubated with MPO (50 nM), H2O2 (50 µM), NaNO2 (50 µM) and increasing concentrations of KYC in phosphate buffer (100 mM, pH 7.4) containing DTPA (100 µM) at 37 °C for 4 h. Reactions were stopped by addition of catalase (2,000 units/mL). Formation of NO2Tyr was assessed by dot blot analysis. Briefly, LDL solutions were mixed with 1% SDS and centrifuged (12000 g, 15 min). Aliquots of supernatants were applied to a nitrocellulose membrane with a dot blot apparatus (Biorad model: Bio-Dot). The levels of NO2Tyr were visualized using a rabbit polyclonal anti-NO2Tyr antibody (EMD, Gibbstown, NJ) and the ECL plus kit from Thermo-Peirce (Rockford, IL).

[2] = system: SCD mice; assay: Vasodilatation of pressurized facialis arteries from treated SCD mice; format: in vivo; settings: IP 0.3 mg/kg/d for 3 weeks; response to ACh; untreated SCD ∼20%
Method: Murine Model of Sickle Cell Disease. Mice treated with KYC in vivo. SCD mice were treated with KYC (intraperitoneal injection: IP 0.3 mg/kg/d) or with PBS (IP 100 µL) for 3 weeks. Anesthesia was induced with Ketamine (100mg/kg) + Xylazine (10mg/kg) cocktail (ip) and then sacrificed by exsanguination. Facialis arteries were atraumatically dissected and maintained in cooled MOPS solution (in mM: NaCl 145, KCL 4.7, CaCl2 2, NaH2PO4 1.2, MgSO4, 1.2, pyruvate 2, EDTA 0.02, MOPS 3.0, and glucose 5.0, at pH 7.4). Vessels were then submerged in a MOPS bath, mounted on MOPS-containing glass capillary tubes, internally pressurized (60 mmHg), and warmed to 37°C. Internal vascular diameters were measured with a calibrated video-microscope (Boeckeler). After the vessel was allowed to acclimate to 37°C (approximately 30 min), the diameter was measured and recorded (Dmax). […] A control dose-response curve using acetylcholine (ACh, 10^-7 - 10^-4 M) was performed and vessel diameter recorded. […] Vasodilation to papaverine (2.0X10^-4 M) was determined after all treatments to ensure smooth muscle viability. Vasodilation was calculated as a percent of maximal vessel diameter change.
Vasodilatation. […] Physiological responses to increasing concentrations of acetylcholine (ACh) were determined by videomicroscopy as previously described.

[3] = system: MPO; assay: MPO-mediated LDL oxidation (conjugated diene formation, absorbance at 234 nm); format: biochemical; settings: 25 µM; in the absence of nitrite
[4] = system: SCD mice; assay: Immunofluorescence of aortas of SCD mice; format: in vivo; settings: IP 0.3 mg/kg/d, three weeks; vs non-treated SCD mice
Method: Immunofluorescence Studies. In a separate study, SCD mice were treated with KYC (IP, 0.3 mg/kg/d). After three weeks treatment, mice were deeply anesthetized and euthanized by exsanguination. Thoracic and abdominal aortas were surgically removed and rinsed free of blood elements using ice cold PBS. Aortas were fixed, imbedded in paraffin, and sectioned.

[5] = system: lung cancer mice; assay: BHT-treated lung cancer mice (BALF activities, tumor number); format: in vivo; settings: BHT 300 mg/kg single dose; 0.3 mg/kg/d; after 3 days
Method: Inhibiting MPO decreases PMN degranulation in lung cancer mice. PMNs are considered to play a causal role in initiating tumor formation. Effects of KYC on PMN recruitment and tumor formation in lung cancer mice were determined. Briefly, mice were treated with BHT (single dose: 300 mg/kg) and KYC (0.3 mg/kg/d).

[6] = system: MPO; assay: MPO-mediated LDL Trp oxidation (Trp intrinsic fluorescence); format: biochemical; settings: MPO/H2O2/NO2- system, 30 min, room temperature
Method: MPO-mediated LDL Trp Oxidation: Reaction mixtures containing LDL (0.15 mg/mL), NaNO2 (100 µM), H2O2 (100 µM), MPO (20 nM) and increasing concentrations of KYC in a phosphate buffer (100 mM, pH 7.4) containing DTPA (100 µM) were incubated at room temperature for 30 min. Reactions were stopped by addition of catalase (2,000 units/mL) and the oxidation of Trp in LDL was determined by measuring changes in the intrinsic fluorescence of Trp (Ex 294nm/Em 345 nm) using a LC-50 fluorometer (Perkin Elmer, Waltham MA).

[7] = system: MPO; assay: MPO-catalyzed HOCl production (taurine/TMB assay); format: biochemical
Method: MPO-mediated HOCl Production. MPO (20 nM) was incubated with H2O2 (50 µM), NaCl (150 mM), taurine (5 mM) and increasing concentrations of KYC in phosphate buffer (100 mM, pH 7.4) which also contained diethylene triamine pentaacetic acid (DTPA, 100 µM) to prevent non-specific, divalent metal cation oxidation for 30 min. Reactions were halted by addition of catalase. Chlorotaurine was quantified using the 3,3-,5,5-tetramethylbenzidine (TMB) assay. Briefly, 400 µL of reaction solution was mixed with 100 µL of 2 mM TMB, 100 µM NaI containing 10% dimethylformamide (DMF) in 400 mM acetate buffer (pH 5.4). After 5 min, absorbance (650 nm) was recorded on a UV/Vis spectrophotometer (Agilent Model 8453).
MPO-catalyzed HOCl Production: MPO (20 nM) was incubated with H2O2 (50 µM), NaCl (150 mM), taurine (5 mM) and increasing concentrations of KYC in a phosphate buffer (100 mM, pH 7.4) containing diethylene triamine pentaacetic acid (DTPA, 100 µM) to prevent non-specific, divalent metal cation oxidation for 30 min. Reactions were halted by addition of catalase (2,000 units/mL). Chlorotaurine was quantified using the TMB assay (66). Briefly, 400 µL of reaction solution was mixed with 100 µL of 2 mM TMB, 100 µM NaI containing 10% dimethylformamide (DMF) in 400 mM acetate buffer (pH 5.4). After 5 min, absorbance (650 nm) was recorded on a UV/Vis spectrophotometer (Agilent Model 8453).

CC(=O)N[C@@H](CCCCN)C(=O)N[C@@H](Cc1ccc(O)cc1)C(=O)N[C@@H](CS)C(N)=O [KYC, N-acetyl Lysyltyrosylcysteine amide] (Ac-Lys-Tyr-Cys-NH2)
NO2Tyr in LDL [1]: markedly reduces | vasodilatation, percent of maximal vessel diameter change [2]: ~60% | MPO/H2O2-mediated LDL oxidation [3]: inhibited LDL oxidation; also recorded: did not increase LDL oxidation | MPO levels in the aortas [4]: reduced | chlorotyrosine levels in the aortas [4]: reduced | MPO activity in BALF [5]: significantly decreased | PMN number in BALF [5]: did not reduce | elastase activity in BALF [5]: significantly decreased | MPO-dependent oxidation of Trp residues in LDL [6]: protected the Trp residues in LDL against MPO-dependent oxidation | MPO-catalyzed HOCl production, comparison at equimolar concentration ([7]; 12.5 µM): comparable to that of tryptophan; also recorded: significantly more effective at inhibiting MPO-dependent HOCl production than GSH | inhibition of HOCl production ([7]; 12.5 µM): ~75% | MPO-dependent HOCl production ([7]; 25 µM): completely inhibits; also recorded: completely ablated | IC50 ([7]; MPO 20 nM, H2O2 50 µM, NaCl 150 mM, 30 min): ~7 µM
